Data on 2 compounds can be found in US10442800B2, “Crystal forms of NBI-98854, preparation method and use thereof” (Crystal Pharmaceutical (Suzhou) Co., Ltd., priority 2016, dated 2019).

Type in all cases: physicochemical
Series [1] in a line: Stability assessment under storage (XRPD for crystalline form, HPLC for chemical purity). To be noted: for stability (overall conclusion): 25° C./60% RH and 40° C./75% RH for 1 month; for Purity / Initial purity: HPLC; for Initial purity: initial sample before storage; for Crystalline form: XRPD. An excerpt:
X-ray powder diffraction pattern in the present disclosure was acquired by a Panalytical Empyrean X-ray powder diffractometer. The parameters of the X-ray powder diffraction method of the present disclosure were as follows:
High Performance Liquid Chromatography (HPLC) data in the present disclosure are collected from Agilent 1100 with diode array detector (DAD). The HPLC method parameters for purity test in the present disclosure are as follows:
1. Column: Waters Xbridge C18 150×4.6 mm, 5 μm
2. Mobile Phase: A: 0.1% TFA in H2O • B: 0.1% TFA in Acetonitrile • Gradient: […]
4. Injection Volume: 10 μL
5. Detection wavelength: 230 nm
6. Column Temperature: 40° C.
7. Diluent: 50% Acetonitrile
Form CS1 in the present disclosure was stored under different conditions of 25° C./60% RH and 40° C./75% RH for 1 month. Samples were taken at the end of 1 month. XRPD and HPLC were used to test the crystalline form and chemical purity. The XRPD overlay is shown in FIG. 14 (Above is the initial sample, in the middle is the sample placed under 25° C./60% RH for 1 month, at the bottom is the sample placed under 40° C./75% RH for 1 month).
Form CS2 in the present disclosure was stored under different conditions of 25° C./60% RH and 40° C./75% RH for 1 month. Samples were taken at the end of 1 month. XRPD and HPLC were used to test the crystalline form and chemical purity. The experimental results are summarized in Table 9. the XRPD overlay is shown in FIG. 15 (Above is the initial sample, in the middle is the sample placed under 25° C./60% RH for 1 month, at the bottom is the sample placed under 40° C./75% RH for 1 month).

The nature of series [2]: Hygroscopicity experiment by Dynamic Vapor Sorption (DVS). The conditions noted are these: 25° C.; for hygroscopicity class: Chinese Pharmacopoeia 2015 definition, 80% RH; for weight gain: DVS, at 80% RH. Here is the method: Dynamic Vapor Sorption (DVS) is measured via a SMS (Surface Measurement Systems Ltd.) intrinsic DVS. Its control software is DVS-Intrinsic control software, and its analysis software is DVS-Intrinsic analysis software. Typical Parameters for DVS test are as follows:
Gas and flow rate: N2, 200 mL/min
RH range: 0% RH to 95% RH
14.3 mg of Form CS1 was placed in a DVS instrument and underwent a cycle of 0%-95%-0% RH. The DVS curve is substantially as depicted in FIG. 12. A weight gain of 0.08% is observed at 80% RH.
8.6 mg of Form CS2 was placed in a DVS instrument and underwent a cycle of 40%-95%-0%-95% RH. A weight gain of 0.56% is observed at 80% RH.

Series [3] is described as follows: Morphology test by polarized light microscopy (PLM). The conditions noted are these: PLM image. Here is the method:
Form CS1 and Form CS2 in the present disclosure were tested by polarized light microscopy, and the results were depicted in FIG. 16 and FIG. 17. The morphologies of Form CS1 and Form CS2 are needle and block, respectively. Both forms disperse well and have little agglomeration. It can be seen from the PLM images that the morphologies of Form CS1 and Form CS2 in the present disclosure are suitable for the development of drug product.

For the compound `COc1cc2c(cc1OC)[C@H]1C[C@@H](OC(=O)[C@@H](N)C(C)C)[C@H](CC(C)C)CN1CC2` [Form CS2, (S)-2-amino-3-methyl-butyric acid (2R,3R,11bR)-3-isobutyl-9,10-dimethoxy-1,3,4 6,7,11b-hexahydro-2H-pyrido[2,1-a]isoquinolin-2-yl ester], in series [1], the “stability (overall conclusion)” value is recorded as “good stability” and the Initial purity is 98.34%. In addition, in series [1] (after 25° C./60% RH (1 month)), the Purity worked out at 98.60% and the Crystalline form result is recorded as “unchanged”. In series [1] (after 40° C./75% RH (1 month)), the Purity is recorded as 97.38% and the Crystalline form entry is on record as “unchanged”. In series [2], the hygroscopicity class result is “slightly hygroscopic” and the weight gain came out at 0.56%. In addition, in series [3], the morphology result is recorded as “block”.
Take `COc1cc2c(cc1OC)[C@H]1C[C@@H](OC(=O)[C@@H](N)C(C)C)[C@H](CC(C)C)CN1CC2` [Form CS1, (S)-2-amino-3-methyl-butyric acid (2R,3R,11bR)-3-isobutyl-9,10-dimethoxy-1,3,4 6,7,11b-hexahydro-2H-pyrido[2,1-a]isoquinolin-2-yl ester]: in series [1], the “stability (overall conclusion)” value is “good stability” and the Initial purity is 98.02%. Further, in series [1] (after 25° C./60% RH (1 month)), the Purity was 98.21% and the Crystalline form result is reported as “unchanged”. In series [1] (after 40° C./75% RH (1 month)), the Purity amounted to 97.76% and the Crystalline form result is reported as “unchanged”. For the same compound, in series [2], the hygroscopicity class result was “almost non hygroscopic” and the weight gain was 0.08%. Besides, in series [3], the morphology result is given as “needle”.
